From BindingDB's records for PubMed 33309162 (Universita Degli Studi di Palermo, 2021)

Molecular target: PI3K catalytic subunit alpha (PIK3CA), rat
Assay: Inhibition of PI3Kalpha in rat Rat1 cells reduction in phosphorylation of AKT at Ser473 residue incubated for 2 hrs by alpha screen assay

| Compound | IC50 |
| --- | --- |
| Cn1nccc1-n1c([C@@H]2CSCN2c2ncnc(N)c2C#N)nc2cccc(Cl)c2c1=O | > 10 µM |
| N#Cc1c(N)ncnc1N1CSC[C@H]1c1nc2cccc(Cl)c2c(=O)n1-c1cccs1 | > 10 µM |
| CN1CCN(C)/C(=N/c2ccc([N+](=O)[O-])cc2C(=O)Nc2ccccc2)C1 | > 10 µM |
